The record followed here is US7820659B2, “Cyclohexylimidiazole lactam derivatives as inhibitors of 11-β-hydroxysteroid dehydrogenase 1” (Eli Lilly and Company, priority 2006, dated 2010).

Experiment [1] deals with recombinant human 11β-HSD type 1 enzyme (Homo sapiens, UniProt P28845). Kind of experiment: 11β-HSD Type 1 Enzyme Assay (NADPH fluorescence). The format is biochemical. As to conditions: three hour incubation at room temperature, read-out: Human 11-βHSD1 IC50. As to the method:
11β-HSD Type 1 Enzyme Assay
Human 11β-HSD type 1 activity is measured by assaying NADPH production by fluorescence assay. Solid compounds are dissolved in DMSO to a concentration of 10 mM. Twenty microliters of each are then transferred to a column of a 96-well polypropylene Nunc plate where they are further diluted 50-fold followed by subsequent two-fold titration, ten times across the plate with additional DMSO using a Tecan Genesis 200 automated system. Plates are then transferred to a Tecan Freedom 200 system with an attached Tecan Temo 96-well head and an Ultra 384 plate reader. Reagents are supplied in 96-well polypropylene Nunc plates and are dispensed individually into black 96-well Molecular Devices High Efficiency assay plates (40 μL/well capacity) in the following fashion: 9 μL/well of substrate (2.22 mM NADP, 55.5 μM Cortisol, 10 mM Tris, 0.25% Prionex, 0.1% Triton X100), 3 μL/well of water to compound wells or 3 μL to control and standard wells, 6 μL/well recombinant human 11β-HSD type 1 enzyme, 2 μL/well of compound dilutions. […] Final DMSO concentration is 0.5% for all compounds, controls and standards. Plates are then placed on a shaker by the robotic arm of the Tecan for 15 seconds before being covered and stacked for a three hour incubation period at room temperature. Upon completion of this incubation, the Tecan robotic arm removes each plate individually from the stacker and places them in position for addition of 5 μL/well of a 250 μM carbenoxolone solution to stop the enzymatic reaction. Plates are then shaken once more for 15 seconds then placed into an Ultra 384 microplate reader (355EX/460EM) for detection of NADPH fluorescence.

In experiment [2] the target is T1, 11β-HSD1 in primary human aortic smooth muscle cells (AoSMC) (Homo sapiens, UniProt P28845).
T1 construct: containing 12 ng/mL hTNFα to induce expression of 11β-HSD1; endogenous in cells; host or cells: primary human aortic smooth muscle cells (AoSMC), induced with hTNFα
Kind of experiment: Human Aortic Smooth Muscle Cell Assay (cortisone to cortisol conversion). It counts as cell-based. As to conditions: hTNFα-induced 11β-HSD1, cortisol by time resolved immunoassay. As to the method:
Human Aortic Smooth Muscle Cell Assay
Primary human aortic smooth muscle cells (AoSMC) are cultured in 5% FBS growth medium to a passage number of 6, then pelleted by centrifugation and resuspended at a density of 9×10^4 cells/mL in 0.5% FBS assay medium containing 12 ng/mL hTNFα to induce expression of 11β-HSD1. Cells are seeded into 96-well tissue culture assay plates at 100 μL/well (9×10^3 cells/well) and incubated for 48 hours at 37° C., 5% CO2. Following induction, cells are incubated for 4 hours at 37° C., 5% CO2 in assay medium containing test compounds then treated with 10 μL/well of 10 μM cortisone solubilized in assay medium, and incubated for 16 hours at 37° C., 5% CO2. Medium from each well is transferred to a plate for subsequent analysis of cortisol using a competitive fluorescence resonance time resolved immunoassay. In solution, an allophycocyanin (APC)-cortisol conjugate and free cortisol analyte compete for binding to a mouse anti-cortisol antibody/Europium (Eu)-anti mouse IgG complex. Higher levels of free cortisol result in diminishing energy transfer from the Europium-IgG to the APC-cortisol complex resulting in less APC fluorescence. Fluorescent intensities for Europium and APC are measured using a LJL Analyst AD. Europium and APC excitation is measured using 360 nm excitation and 615 nm and 650 nm emission filters respectively. Time resolved parameters for Europuium were 1000 μs integration time with a 200 μs delay. APC parameters are set at 150 μs integration time with a 50 μs delay. Fluorescent intensities measured for APC are modified by dividing by the Eu fluorescence (APC/Eu). This ratio is then used to determine the unknown cortisol concentration by interpolation using a cortisol standard curve fitted with a 4-parameter logistic equation. These concentrations are then used to determine compound activity by plotting concentration versus % inhibition, fitting with a 4-parameter curve and reporting the IC50.

The next experiment relates to cortisone conversion. Put plainly: Acute In Vivo Cortisone Conversion Assay. Further details: species or system male C57BL/6 mice. As to conditions: mice, oral dose of 10 mg/kg, cortisone challenge 30 mg/kg s.c. after 16 hours, serum cortisol by LC-MS/MS. The protocol: Acute In Vivo Cortisone Conversion Assay
In general, compounds are dosed orally into mice, the mice are challenged with a subcutaneous injection of cortisone at a set timepoint after compound injection, and the blood of each animal is collected some time later. Separated serum is then isolated and analyzed for levels of cortisone and cortisol by LC-MS/MS, followed by calculation of mean cortisol and percent inhibition of each dosing group. Specifically, male C57BL/6 mice are obtained from Harlan Sprague Dawley at average weight of 25 grams. Exact weights are taken upon arrival and the mice randomized into groups of similar weights. Compounds are prepared in 1% w-w HEC, 0.25% w-w polysorbate 80, 0.05% w-w Dow Corning antifoam #1510-US at various doses based on assumed average weight of 25 grams. Compounds are dosed orally, 200 μl per animal, followed by a subcutaneous dose, 200 μl per animal, of 30 mg/kg cortisone at 1 to 24 hours post compound dose. At 10 minutes post cortisone challenge, each animal is euthanized for 1 minute in a CO2 chamber, followed by blood collection via cardiac puncture into serum separator tubes. Once fully clotted, tubes are spun at 2500×g, 4° C. for 15 minutes, the serum transferred to wells of 96-well plates (Corning Inc, Costar #4410, cluster tubes, 1.2 ml, polypropylene), and the plates are frozen at −20° C. until analysis by LC-MS/MS. For analysis, serum samples are thawed and the proteins are precipitated by the addition of acetonitrile containing d-4-cortisol internal standard. Samples are vortex mixed and centrifuged. The supernatant is removed and dried under a stream of warm nitrogen. Extracts are reconstituted in methanol/water (1:1) and injected onto the LC-MS/MS system. The levels of cortisone and cortisol are assayed by selective reaction monitoring mode following positive ACPI ionization on a triple quadrupole mass spectrophotometer.

Each structure is given as a SMILES string.

T1 sequence (P28845 whole entry): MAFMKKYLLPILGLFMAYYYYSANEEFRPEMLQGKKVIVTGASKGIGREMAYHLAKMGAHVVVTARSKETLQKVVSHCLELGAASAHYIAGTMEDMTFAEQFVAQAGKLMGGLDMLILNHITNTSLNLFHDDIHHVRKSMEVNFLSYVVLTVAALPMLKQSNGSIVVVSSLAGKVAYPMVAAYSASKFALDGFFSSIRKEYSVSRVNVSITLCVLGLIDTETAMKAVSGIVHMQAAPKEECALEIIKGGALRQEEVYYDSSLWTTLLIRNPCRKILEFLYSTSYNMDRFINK
Chain of recombinant human 11β-HSD type 1 enzyme (P28845 whole entry): as above

One may read the IC50 as the midpoint of a concentration-inhibition curve. As to `O=C1C(Cc2c(Cl)cc(-c3ccc(Cl)cc3)cc2Cl)CCN1C1CCc2nc[nH]c2C1` (stereo not shown) [Example 1, 1-(4,5,6,7-Tetrahydro-3H-benzoimidazol-5-yl)-3-(3,5,4′-trichloro-biphenyl-4-ylmethyl)-pyrrolidin-2-one], the IC50 in experiment [1] is 325 nM; in experiment [2], 6.8 nM.
As for `O=C1[C@H](Cc2c(Cl)cc(-c3ccc(N4CCOCC4)cc3)cc2Cl)CCN1C1CCc2[nH]cnc2C1` (stereo partly drawn) [Example 29, (R)-3-(3,5-Dichloro-4′-morpholin-4-yl-biphenyl-4-ylmethyl)-1-(4,5,6,7-tetrahydro-1H-benzoimidazol-5-yl)-pyrrolidin-2-one], the half-maximal inhibitory concentration (IC50) in experiment [1] is 75.4 nM; in experiment [2], 0.6 nM. Also, the “% Inhibition after 16 hours (dose of 10 (mg/kg))” value (from here on “% Inhibition after 16 hours”) with cortisone conversion was found to be 52%.
As for `O=C1[C@H](Cc2c(Cl)cc(-c3ccc(N4CCOCC4)nc3F)cc2Cl)CCN1C1CCc2[nH]cnc2C1` (stereo partly drawn) [Example 32, (R)-3-[2,6-Dichloro-4-(2-fluoro-6-morpholin-4-yl-pyridin-3-yl)-benzyl]-1-(4,5,6,7-tetrahydro-1H-benzoimidazol-5-yl)-pyrrolidin-2-one], the 50% inhibitory concentration (IC50) was found to be 175 nM in experiment [1] and 3 nM in experiment [2]. Also, the “% Inhibition after 16 hours” value in the experiment with cortisone conversion is 59.2%.
For the compound `O=C(c1ccc(-c2cc(Cl)c(C[C@@H]3CCN(C4CCc5nc[nH]c5C4)C3=O)c(Cl)c2)cc1)N1CCC(C(F)(F)F)CC1` (stereo partly shown) [Example 42, 3-[R]-[3,5-Dichloro-4′-(4-trifluoromethyl-piperidine-1-carbonyl)-biphenyl-4-ylmethyl]-1-(4,5,6,7-tetrahydro-3H-benzoimidazol-5-yl)-pyrrolidin-2-one], the figures for the IC50 in experiment [1] and in experiment [2] were 143 nM and 4.5 nM, respectively. Also, in the experiment with cortisone conversion, the “% Inhibition after 16 hours” value is given as 98.4%.
Turning to `O=C1C(Cc2c(Cl)cc(-c3ccc(F)cc3)cc2Cl)CCN1C1CCc2[nH]cnc2C1` (stereo not shown) [Example 15, 3-(3,5-Dichloro-4′-fluoro-biphenyl-4-ylmethyl)-1-(4,5,6,7-tetrahydro-1H-benzoimidazol-5-yl)-pyrrolidin-2-one], the IC50 in experiment [1] was determined as 214 nM; in experiment [2], 3.2 nM.
